Assay results from patent US11365188B2, “JAK inhibitors” (priority 2018, dated 2022).
pIC50: −log10 of the molar value.

Tests used:
Type in all cases: biochemical
JAK2 = JAK2 (Homo sapiens, UniProt O60674); test: JAK2 Assay (Caliper EZ Reader, fluoresceinated peptide); conditions: ATP 11.4 μM; JAK2 0.25 nM; 15 minutes at room temperature; read-out: JAK2 inhibition
JAK3 = target: T1, JAK3 (Homo sapiens, UniProt P52333); test: JAK3 Assay (Caliper EZ Reader, fluoresceinated peptide); conditions: ATP 3.5 μM; JAK3 0.5 nM; 30 minutes at room temperature; read-out: JAK3 inhibition
T1 sequence (P52333 1-1124): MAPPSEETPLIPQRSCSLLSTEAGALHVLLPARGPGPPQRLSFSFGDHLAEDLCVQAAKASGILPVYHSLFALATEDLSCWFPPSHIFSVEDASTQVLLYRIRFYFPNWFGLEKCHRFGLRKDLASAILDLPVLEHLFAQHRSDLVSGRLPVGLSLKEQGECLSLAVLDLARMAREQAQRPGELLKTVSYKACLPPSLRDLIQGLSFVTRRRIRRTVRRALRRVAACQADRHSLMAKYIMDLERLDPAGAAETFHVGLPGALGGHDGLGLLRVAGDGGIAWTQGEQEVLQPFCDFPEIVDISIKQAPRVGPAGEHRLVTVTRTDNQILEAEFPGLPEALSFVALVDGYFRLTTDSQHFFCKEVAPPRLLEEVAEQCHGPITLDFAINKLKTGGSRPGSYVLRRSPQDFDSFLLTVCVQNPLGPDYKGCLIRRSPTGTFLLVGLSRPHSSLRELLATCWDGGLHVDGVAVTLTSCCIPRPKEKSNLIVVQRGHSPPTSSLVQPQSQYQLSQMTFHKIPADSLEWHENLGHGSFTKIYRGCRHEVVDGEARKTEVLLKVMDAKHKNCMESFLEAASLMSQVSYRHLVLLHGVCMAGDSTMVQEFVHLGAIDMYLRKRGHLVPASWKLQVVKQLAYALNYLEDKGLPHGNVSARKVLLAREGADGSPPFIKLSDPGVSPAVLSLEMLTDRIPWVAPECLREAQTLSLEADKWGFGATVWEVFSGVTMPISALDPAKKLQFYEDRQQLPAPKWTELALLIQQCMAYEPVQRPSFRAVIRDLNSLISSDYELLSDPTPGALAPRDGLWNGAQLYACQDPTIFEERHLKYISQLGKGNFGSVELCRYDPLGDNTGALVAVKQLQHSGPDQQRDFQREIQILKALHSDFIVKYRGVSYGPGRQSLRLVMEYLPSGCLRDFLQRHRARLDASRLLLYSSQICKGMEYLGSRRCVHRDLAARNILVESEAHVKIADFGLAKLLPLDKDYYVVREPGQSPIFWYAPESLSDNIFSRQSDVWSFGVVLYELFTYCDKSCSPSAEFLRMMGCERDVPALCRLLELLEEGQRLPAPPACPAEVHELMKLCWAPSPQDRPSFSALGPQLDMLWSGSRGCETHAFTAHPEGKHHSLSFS

JAK1 = JAK1 (Homo sapiens, UniProt P23458); test: JAK Kinase Assay (JAK1, Caliper EZ Reader, fluoresceinated peptide); conditions: ATP 76.5 μM; JAK1 10 nM; 120 minutes at room temperature; read-out: JAK1 inhibition
TYK2 = TYK2 (Homo sapiens, UniProt P29597); test: TYK2 Assay (Caliper EZ Reader, fluoresceinated peptide); conditions: ATP 35.4 μM; TYK2 10 nM; 10 minutes at room temperature; read-out: TYK2 inhibition
Method: 384-well plates in the left foot butoxy measured progress. The final assay volume was 25 μL, 250 nL 100× compounds, 10 μL enzyme mix and 15 μL substrate mix (fluoresceinated peptide and ATP) in assay buffer (50 mM HEPES (pH 7.5), 10 mM MgCl2, 0.01% TritonX-100, 0.01% Brij35, 0.5 mM EGTA and 2 mM DTT) prepared as test compound. B mixing the TYK2 with substrates and test compounds to start the reaction. The reaction mixture was incubated for 10 minutes at room temperature, then added 30 μL stop buffer for each sample to terminate the reaction with 50 mM EDTA. After termination of the kinase reaction, the proportion of phosphorylated product was determined as a fraction of total peptide substrate using Caliper EZ Reader 1. Inhibition data were calculated by comparison with 100% of the reaction mixture without enzyme inhibition and vehicle-only reaction mixture billion % inhibition compared. The final concentration of reagents in the assays is: ATP, 35.4 μM; TYK2 fluorescent peptide (5-FAM-KKKKEEIYFFF-CONH2), 3 μM; TYK2, 10 nM; and DMSO, 1% Dose response curve were generated to determine the concentration required for IC50 of TYK2 activity.

Sequence of JAK1 (P23458 whole entry, species assumed): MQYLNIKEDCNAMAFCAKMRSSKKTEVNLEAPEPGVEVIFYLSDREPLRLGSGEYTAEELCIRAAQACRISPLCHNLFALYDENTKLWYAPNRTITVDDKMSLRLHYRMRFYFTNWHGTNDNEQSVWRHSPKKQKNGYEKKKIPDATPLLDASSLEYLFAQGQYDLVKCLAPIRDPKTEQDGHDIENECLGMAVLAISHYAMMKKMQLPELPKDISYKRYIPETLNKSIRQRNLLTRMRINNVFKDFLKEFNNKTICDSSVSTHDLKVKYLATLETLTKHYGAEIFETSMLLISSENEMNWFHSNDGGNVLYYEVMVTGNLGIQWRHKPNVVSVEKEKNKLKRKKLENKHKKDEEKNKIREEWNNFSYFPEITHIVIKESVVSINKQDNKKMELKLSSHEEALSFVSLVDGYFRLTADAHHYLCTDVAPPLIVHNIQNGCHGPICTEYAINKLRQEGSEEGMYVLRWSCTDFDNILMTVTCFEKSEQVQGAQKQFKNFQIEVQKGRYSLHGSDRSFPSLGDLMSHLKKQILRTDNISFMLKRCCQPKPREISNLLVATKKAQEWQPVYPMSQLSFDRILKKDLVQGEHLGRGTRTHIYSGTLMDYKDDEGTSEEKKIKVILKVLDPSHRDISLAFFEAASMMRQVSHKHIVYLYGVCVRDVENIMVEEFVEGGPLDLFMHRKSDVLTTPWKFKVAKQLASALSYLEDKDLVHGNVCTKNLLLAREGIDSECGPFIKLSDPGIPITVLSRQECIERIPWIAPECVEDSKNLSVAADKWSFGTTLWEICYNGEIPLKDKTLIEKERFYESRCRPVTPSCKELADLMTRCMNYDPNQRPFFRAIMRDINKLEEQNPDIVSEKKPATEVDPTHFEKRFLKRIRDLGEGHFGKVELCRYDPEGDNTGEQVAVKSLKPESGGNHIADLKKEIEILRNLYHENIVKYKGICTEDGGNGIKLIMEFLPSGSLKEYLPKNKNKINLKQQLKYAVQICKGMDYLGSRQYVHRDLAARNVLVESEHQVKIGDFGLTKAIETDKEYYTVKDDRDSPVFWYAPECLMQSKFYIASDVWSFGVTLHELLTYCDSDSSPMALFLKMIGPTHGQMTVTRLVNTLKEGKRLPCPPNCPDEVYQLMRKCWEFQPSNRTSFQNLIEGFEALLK
Sequence of TYK2 (P29597 whole entry, species assumed): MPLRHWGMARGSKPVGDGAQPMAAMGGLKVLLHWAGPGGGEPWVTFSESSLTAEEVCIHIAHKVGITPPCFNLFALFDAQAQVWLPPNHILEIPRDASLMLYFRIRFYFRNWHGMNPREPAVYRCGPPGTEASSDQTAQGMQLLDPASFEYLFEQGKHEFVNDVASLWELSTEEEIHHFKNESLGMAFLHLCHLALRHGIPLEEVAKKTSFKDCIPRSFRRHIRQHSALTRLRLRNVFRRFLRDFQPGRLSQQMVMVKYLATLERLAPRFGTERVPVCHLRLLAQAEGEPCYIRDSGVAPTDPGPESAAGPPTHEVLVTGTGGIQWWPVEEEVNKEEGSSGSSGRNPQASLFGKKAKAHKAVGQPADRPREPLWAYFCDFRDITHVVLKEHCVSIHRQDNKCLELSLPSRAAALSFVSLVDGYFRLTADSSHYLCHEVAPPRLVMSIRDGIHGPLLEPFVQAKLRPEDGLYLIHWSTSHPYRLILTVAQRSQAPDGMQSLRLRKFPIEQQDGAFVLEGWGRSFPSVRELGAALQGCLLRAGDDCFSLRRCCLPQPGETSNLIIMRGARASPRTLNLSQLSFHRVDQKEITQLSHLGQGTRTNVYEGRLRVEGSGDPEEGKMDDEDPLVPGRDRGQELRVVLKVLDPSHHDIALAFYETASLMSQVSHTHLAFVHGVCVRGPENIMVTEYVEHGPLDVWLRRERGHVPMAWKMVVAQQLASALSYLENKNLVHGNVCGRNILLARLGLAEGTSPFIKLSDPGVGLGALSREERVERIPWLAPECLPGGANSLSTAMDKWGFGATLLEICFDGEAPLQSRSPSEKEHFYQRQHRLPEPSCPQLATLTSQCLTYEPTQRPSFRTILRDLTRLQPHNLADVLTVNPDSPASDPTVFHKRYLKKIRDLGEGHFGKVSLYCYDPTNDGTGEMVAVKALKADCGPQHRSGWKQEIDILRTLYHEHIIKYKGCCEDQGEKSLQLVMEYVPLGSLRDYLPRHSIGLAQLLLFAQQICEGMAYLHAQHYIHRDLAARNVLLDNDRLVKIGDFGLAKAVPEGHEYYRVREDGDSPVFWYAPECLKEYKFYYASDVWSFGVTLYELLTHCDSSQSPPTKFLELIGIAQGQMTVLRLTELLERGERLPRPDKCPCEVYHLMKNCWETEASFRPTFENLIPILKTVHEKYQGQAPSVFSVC
Sequence of JAK2 (O60674 whole entry, species assumed): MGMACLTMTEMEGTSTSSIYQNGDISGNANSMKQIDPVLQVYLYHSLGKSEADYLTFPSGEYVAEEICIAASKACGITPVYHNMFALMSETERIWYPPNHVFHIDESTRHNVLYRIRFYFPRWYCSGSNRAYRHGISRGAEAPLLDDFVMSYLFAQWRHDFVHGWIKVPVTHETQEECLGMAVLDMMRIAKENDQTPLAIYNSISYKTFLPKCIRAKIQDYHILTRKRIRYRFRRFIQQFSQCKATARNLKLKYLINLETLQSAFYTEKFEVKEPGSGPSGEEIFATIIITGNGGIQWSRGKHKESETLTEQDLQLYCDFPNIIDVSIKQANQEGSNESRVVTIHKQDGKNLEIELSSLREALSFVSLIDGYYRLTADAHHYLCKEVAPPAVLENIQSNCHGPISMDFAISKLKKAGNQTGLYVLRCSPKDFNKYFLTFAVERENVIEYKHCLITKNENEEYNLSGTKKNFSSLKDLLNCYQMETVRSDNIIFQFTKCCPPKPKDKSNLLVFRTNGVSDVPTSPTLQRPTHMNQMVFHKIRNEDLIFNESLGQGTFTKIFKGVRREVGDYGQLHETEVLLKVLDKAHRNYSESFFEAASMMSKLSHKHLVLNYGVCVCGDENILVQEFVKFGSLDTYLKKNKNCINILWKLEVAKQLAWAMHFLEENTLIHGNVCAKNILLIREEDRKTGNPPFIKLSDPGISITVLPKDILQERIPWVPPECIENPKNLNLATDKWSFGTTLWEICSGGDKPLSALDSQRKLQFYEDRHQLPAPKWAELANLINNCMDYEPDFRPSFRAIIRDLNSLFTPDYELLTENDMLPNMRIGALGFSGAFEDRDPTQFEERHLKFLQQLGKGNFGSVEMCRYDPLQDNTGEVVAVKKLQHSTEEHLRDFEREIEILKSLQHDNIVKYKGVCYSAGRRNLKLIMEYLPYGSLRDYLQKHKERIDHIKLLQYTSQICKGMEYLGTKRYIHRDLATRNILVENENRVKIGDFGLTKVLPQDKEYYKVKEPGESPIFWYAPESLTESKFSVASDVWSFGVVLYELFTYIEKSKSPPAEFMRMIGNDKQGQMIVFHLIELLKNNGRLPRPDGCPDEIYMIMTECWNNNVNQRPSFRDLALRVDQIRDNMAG

| Compound | pIC50 (JAK2) | pIC50 (JAK3) | pIC50 (JAK1) | pIC50 (TYK2) |
| --- | --- | --- | --- | --- |
| CN(c1ncnc2[nH]ccc12)C1CC2(C1)CN(C(=O)c1ccc(C#N)c(F)c1)C2 [Compound 1, 2-fluoro-4-(6-(methyl(7H-pyrrolo[2,3-d]pyrimidin-4-yl)amino)-2-azaspiro[3.3]heptane-2-carbonyl)benzonitrile] | 5.00 to 6.00 | ≤ 5.00 | 7.00 to 8.00 | ≤ 5.00 |
| CN(c1ncnc2[nH]ccc12)C1CC2(C1)CN(C(=O)c1ccc(Cl)cc1)C2 [Compound 25, (4-chlorophenyl)(6-(methyl(7H-pyrrolo[2,3-d]pyrimidin-4-yl)amino)-2-azaspiro[3.3]heptan-2-yl)methanone] | 5.00 to 6.00 | ≤ 5.00 | 7.00 to 8.00 | ≤ 5.00 |
| CN(c1ncnc2[nH]ccc12)C1CC2(C1)CN(C(=O)c1ccc(C#N)cc1F)C2 [Compound 14, 3-fluoro-4-(6-(methyl(7H-pyrrolo[2,3-d]pyrimidin-4-yl)amino)-2-azaspiro[3.3]heptane-2-carbonyl)benzonitrile] | 6.00 to 7.00 | ≤ 5.00 | 7.00 to 8.00 | ≤ 5.00 |
| CN(c1ncnc2[nH]ccc12)C1CC2(C1)CN(C(=O)c1ccc(F)cc1)C2 [Compound 27, (4-fluorophenyl)(6-(methyl(7H-pyrrolo[2,3-d]pyrimidin-4-yl)amino)-2-azaspiro[3.3]heptan-2-yl)methanone] | 5.00 to 6.00 | ≤ 5.00 | 7.00 to 8.00 | ≤ 5.00 |
| C#Cc1ccc(C(=O)N2CC3(CC(N(C)c4ncnc5[nH]ccc45)C3)C2)cc1 [Compound 26, (4-ethynylphenyl)(6-(methyl(7H-pyrrolo[2,3-d]pyrimidin-4-yl)amino)-2-azaspiro[3.3]heptan-2-yl)methanone] | 6.00 to 7.00 | ≤ 5.00 | ≥ 8.00 | 5.00 to 6.00 |

More lines, now with the values ahead:

| pIC50 (JAK2) | pIC50 (JAK3) | pIC50 (JAK1) | pIC50 (TYK2) | Compound |
| --- | --- | --- | --- | --- |
| 6.00 to 7.00 | ≤ 5.00 | 7.00 to 8.00 | ≤ 5.00 | Cc1ccsc1C(=O)N1CC2(CC(N(C)c3ncnc4[nH]ccc34)C2)C1 [Compound 28, (6-(methyl(7H-pyrrolo[2,3-d]pyrimidin-4-yl)amino)-2-azaspiro[3.3]heptan-2-yl)(3-methylthiophen-2-yl)methanone] |
| 5.00 to 6.00 | ≤ 5.00 | 7.00 to 8.00 | ≤ 5.00 | CN(c1ncnc2[nH]ccc12)C1CC2(C1)CN(C(=O)c1ccc(Cl)cn1)C2 [Compound 32, (5-chloropyridin-2-yl)(6-(methyl(7H-pyrrolo[2,3-d]pyrimidin-4-yl)amino)-2-azaspiro[3.3]heptan-2-yl)methanone] |
| 5.00 to 6.00 | ≤ 5.00 | 6.00 to 7.00 | ≤ 5.00 | CN(c1ncnc2[nH]ccc12)C1CC2(C1)CN(C(=O)c1ccc(C(F)(F)F)cc1)C2 [Compound 31, (6-(methyl(7H-pyrrolo[2,3-d]pyrimidin-4-yl)amino)-2-azaspiro[3.3]heptan-2-yl)(4-(trifluoromethyl)phenyl)methanone] |
| 5.00 to 6.00 | ≤ 5.00 | 6.00 to 7.00 | ≤ 5.00 | CN(c1ncnc2[nH]ccc12)C1CC2(C1)CN(C(=O)Nc1cccc(Cl)c1)C2 [Compound 33, N-(3-chlorophenyl)-6-(methyl(7H-pyrrolo[2,3-d]pyrimidin-4-yl)amino)-2-azaspiro[3.3]heptane-2-carboxamide] |
